Six compounds from BindingDB's records for doi:10.7270/Q2TH8K43 (Burnham Center For Chemical Genomics, 2010) can be followed below.

pIC50: −log10 of the molar value.

The target in the assay is Nucleotide-binding oligomerization domain-containing protein 2 (Homo sapiens, UniProt Q9HC29). Description: PubChem AID 2334.
Sequence of Nucleotide-binding oligomerization domain-containing protein 2 (Q9HC29 whole entry, the tested form may be a part): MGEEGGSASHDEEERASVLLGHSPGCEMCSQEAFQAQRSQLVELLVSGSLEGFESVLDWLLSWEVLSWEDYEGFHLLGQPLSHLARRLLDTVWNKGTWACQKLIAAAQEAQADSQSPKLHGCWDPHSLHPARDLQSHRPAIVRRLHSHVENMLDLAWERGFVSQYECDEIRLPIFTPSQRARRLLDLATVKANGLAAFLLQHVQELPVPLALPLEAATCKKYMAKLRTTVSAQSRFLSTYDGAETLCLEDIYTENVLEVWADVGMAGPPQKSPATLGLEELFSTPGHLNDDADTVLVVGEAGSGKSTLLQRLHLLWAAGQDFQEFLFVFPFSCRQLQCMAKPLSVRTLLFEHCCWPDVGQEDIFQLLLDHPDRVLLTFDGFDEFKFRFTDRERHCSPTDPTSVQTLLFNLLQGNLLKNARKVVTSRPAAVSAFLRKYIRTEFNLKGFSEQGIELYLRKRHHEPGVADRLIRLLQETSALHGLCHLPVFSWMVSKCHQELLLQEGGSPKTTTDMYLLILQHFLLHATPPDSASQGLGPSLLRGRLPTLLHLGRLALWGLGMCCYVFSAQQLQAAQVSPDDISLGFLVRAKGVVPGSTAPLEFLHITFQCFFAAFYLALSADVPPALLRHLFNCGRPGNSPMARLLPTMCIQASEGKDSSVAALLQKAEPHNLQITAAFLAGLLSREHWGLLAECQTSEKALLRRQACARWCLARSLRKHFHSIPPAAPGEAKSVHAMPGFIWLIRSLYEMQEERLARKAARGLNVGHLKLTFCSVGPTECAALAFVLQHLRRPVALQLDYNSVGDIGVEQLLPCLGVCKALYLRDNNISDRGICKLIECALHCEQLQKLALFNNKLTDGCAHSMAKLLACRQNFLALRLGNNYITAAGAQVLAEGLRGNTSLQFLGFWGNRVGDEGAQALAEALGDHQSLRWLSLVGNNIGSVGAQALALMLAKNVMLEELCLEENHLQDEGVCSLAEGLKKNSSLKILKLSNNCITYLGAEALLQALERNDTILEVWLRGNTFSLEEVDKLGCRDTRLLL
As a reminder, the pIC50 is −log10 of the IC50, conventionally taken in molar units. A lower pIC50 goes with a high IC50. For the compound `Cc1ccc(C)c(SCC(=O)OCC(=O)C(C#N)c2nc3ccccc3[nH]2)c1` (stereo unspecified) [MLS000392255], the pIC50 is < 4.70.
In the case of `N#CC(C(=O)COC(=O)CSc1ccc(Cl)cc1)c1nc2ccccc2[nH]1` (stereo unspecified) [MLS-0208254.0001] it was < 4.70; in that of `Cc1cc(SCC(=O)OCC(=O)C(C#N)c2nc3ccccc3[nH]2)c(C)cc1Br` (stereo unspecified), < 4.70; in that of `N#CC(C(=O)COC(=O)CSc1ccc2ccccc2c1)c1nc2ccccc2[nH]1` (stereo unspecified) [[3-cyano-3-(1,3-dihydrobenzimidazol-2-ylidene)-2-oxopropyl] 2-naphthalen-2-ylsulfanylacetate], < 4.70.
Turning to `Cc1cc(Br)ccc1SCC(=O)OCC(=O)C(C#N)c1nc2ccccc2[nH]1` (stereo unspecified) [2-[(4-bromo-2-methylphenyl)thio]acetic acid [3-cyano-3-(1,3-dihydrobenzimidazol-2-ylidene)-2-oxopropyl] ester], the pIC50 was < 4.70.
In the case of `Cc1ccc(O)c(/N=C/C2=CC(Cc3ccccc3)C=C([N+](=O)[O-])C2=O)c1` (stereo unspecified) [(6E)-6-[[(5-methyl-2-oxidanyl-phenyl)amino]methylidene]-2-nitro-4-(phenylmethyl)cyclohexa-2,4-dien-1-one] it was < 4.70.
